In the assay the test system is Plasmodium falciparum. In words: GSK_TCMDC: Inhibition of Plasmodium falciparum 3D7 in whole erythrocytes, using parasite LDH activity as an index of growth. The conditions noted are these: Plasmodium falciparum, 3D7. In kind it is functional, organism-based.
Take `O=C([C@H]1CCCCN1c1ccc([N+](=O)[O-])c2ccccc12)N1CCN(c2ncccn2)CC1`: the XC50 came out at 199 nM.
In the case of `CCC(CC)n1c(C)cc2c3c(N)nc(N)nc3ccc21` it was 3.2 nM.
For the compound `Cc1ccc(Cn2ccc3c4c(N)nc(N)nc4ccc32)cc1`, the XC50 amounted to 3.2 nM.
`Cc1ccc(CC(C)NCC(O)c2cccc([N+](=O)[O-])c2)cc1` (configuration not stated): the XC50 worked out at 761 nM.
Regarding `CN1CCCN(Cc2cccc(-c3ccc(NC(=O)c4cccc(C#N)c4)cc3)c2)CC1`, the XC50 worked out at 723 nM.
The compound `O=C(Nc1ccc(-c2cccc(CN3CCC(O)CC3)c2)cc1)c1cccc(Cl)c1` had an XC50 of 826 nM.
With `CCC(C)c1cnc2nc(N)nc(N)c2c1C` (configuration not stated), the XC50 came to 444 nM.
Then `Cn1c(N)c(C(=O)CSc2nnc(-c3cccs3)n2Cc2ccccc2)c(=O)n(C)c1=O`, with 792 nM.
In the case of `CCOC(=O)c1c(CSc2ccccc2)oc2cc(CN(C)C)c(O)c(Cl)c12`, the XC50 was 657 nM.
The compound `CC[C@H]1CN2CC[C@H]1C[C@H]2[C@H](O)c1cc(-c2ccc(F)cc2)nc2ccc(OC)cc12` displayed an XC50 of 49.7 nM.
Then `COc1ccc(NC(=O)CCNc2cc(C)nc(NCc3ccccc3C)n2)cc1`, with 1070 nM; and `Cc1ccc(C2(CN3CCC(NC(=O)c4cc[nH]n4)CC3)CCCCC2)cc1`, with 225 nM.
In the case of `NC(=O)COc1cccc2c1CCN(CCN1CCC(NC(=O)c3ccc(-c4ccc(Cl)cc4)cc3)CC1)C2` it was 841 nM; in that of `CC[C@H]1CN2CC[C@H]1C[C@H]2[C@H](O)c1cc(-c2ccc(C)cc2)nc2ccc(OC)cc12`, 109 nM; in that of `Nc1nccc2ccc(Oc3ccncc3)cc12`, 481 nM.
In the case of `CN1CC[C@@H](Oc2cc(NC(=O)Nc3ccccc3Br)ccc2Cl)C1`, the XC50 came to 1100 nM.
Then `O=C(Nc1ccc2c(c1)CN(Cc1ccc(N3CCCC3)o1)CCC2)c1ccoc1`, with 953 nM.
`O=C(/C=C/c1ccc(Cl)c(Cl)c1)NC1CCC(CN2CCC(c3c[nH]c4ccncc34)CC2)CC1` (configuration not stated) gave an XC50 of 398 nM.
On to `COc1ccc(CNC(=O)C2Cc3ccccc3CN2Cc2ccc3ccccc3c2)cc1` (configuration not stated), for which the XC50 turned out to be 1100 nM.
Compound `Oc1ccc(Cl)cc1CN1CCC(CCOC(c2ccccc2)c2ccccc2)CC1` came in with an XC50 of 649 nM.
Then `Cc1cccc2nc(-c3ccc(-c4ccc(NC(=O)Nc5ccc(Cl)c(Cl)c5)cc4)cc3)[nH]c12`, with 826 nM.
Then `O=C(c1cccc(-c2noc(C(F)(F)F)n2)c1)N1CCN(C(=O)c2ccc3cc[nH]c3c2)CC1`, with 107 nM; and `Cc1cccc2nc(-c3cccc(-c4cccc(CNCc5ccccc5)c4)c3)[nH]c12`, with 393 nM.
Compound `CCCN1CC[C@@H](CCCc2ccnc3ccc(O)cc23)[C@@H](CC)C1` registered an XC50 of 889 nM.
For `CCCNCc1ccc(-c2ccc(CN(Cc3cnc(C)cn3)C(=O)/C=C/c3ccccc3C)cc2)nc1`, the XC50 was determined as 919 nM.
With `CCC(=O)N(c1ccccc1)C1CCN(CCCC(NC(=O)c2cc(C(F)(F)F)cc(C(F)(F)F)c2)c2ccc(Cl)c(Cl)c2)CC1` (configuration not stated), the XC50 turned out to be 803 nM.
As for `COc1ccc(Cl)cc1NC(=O)CN(C)C(=O)c1cnn(-c2ccccc2)n1`, the XC50 amounted to 228 nM.
In turn, `CCN(CC)S(=O)(=O)c1ccc(C(C)NC(=O)c2ccccc2COc2ccccc2)cc1` (configuration not stated) registered an XC50 of 330 nM.
Then `O=c1cc(NCCNCc2cccc(-c3ccccc3)c2)[nH]c2ccccc12`, with 1030 nM; and `CCn1c(-c2cc(C)on2)nc2cnc(Oc3ccc(C(=O)N4CC(=O)N(C)C4C(C)(C)C)cc3)cc21` (configuration not stated), with 1820 nM; and `N#Cc1cncc(-c2nc3c(N4CCCC(N)C4)cccc3n2CCNCc2ccccc2)c1` (configuration not stated), with 768 nM.
As to `CON=Cc1sc(CNCCCN=c2cc(O)c3ccccc3[nH]2)c(C)c1Br`, the XC50 was determined as 962 nM.
Take `COc1cc2ncnc(Nc3ccc4nc(-c5ccccc5)[nH]c4c3)c2cc1OC`: the XC50 came out at 443 nM.
Then `COc1cc2nccc(Nc3cc(C)cc(O)c3)c2cc1OC`, with 905 nM.
As for `CN1CCN(CCCN(Cc2csc(-c3ccc(CNCc4ccccc4)cc3)n2)S(=O)(=O)c2ccccc2Cl)CC1`, the XC50 turned out to be 876 nM.
With `OCC1CCN(Cc2ccc(-c3ccc(-c4nc5ccccc5[nH]4)cc3)cc2)CC1`, the XC50 worked out at 898 nM.
Then `CC(C)=CCN1CCC(C(=O)Nc2ccc(-c3nc4ccccc4[nH]3)cc2)CC1`, with 908 nM; and `CC1(C)NC(=N)N=C(NOCC=Cc2ccccc2)N1`, with 227 nM; and `ON=C(c1nc2ccccc2[nH]1)c1nc2ccccc2[nH]1`, with 1090 nM.
Then `Oc1ccccc1CN(CCCN(Cc1ccccn1)Cc1ccccc1O)Cc1ccccn1`, with 1060 nM.
Then `Cc1nc(C)c(-c2ccc(Oc3cc(Cl)cc(Cl)c3)cc2)c(O)c1Br`, with 242 nM; and `NCc1ccc(CNCc2cccc(-c3ccc(-c4nc5cc(C(F)(F)F)ccc5[nH]4)cc3)c2)cc1`, with 261 nM; and `O=C(CNC(=O)c1ccc(O)cc1)Nc1cccc(-c2cccc(-c3nc4cc(C(F)(F)F)ccc4[nH]3)c2)c1`, with 1040 nM.
In the case of `CC(=O)c1cccc2[nH]c(C(=O)NC3CCC(CCN4CCc5ccc(C#N)cc5C4)CC3)cc12` (configuration not stated), the XC50 is 842 nM.
Compound `CC(Cc1ccc(OCCN2CCN(c3ccccc3)CC2)cc1)NCC(O)c1cccc(Cl)c1F` (configuration not stated) yielded an XC50 of 873 nM.
The compound `CC1N=C(N)N=C(N)N1OCc1ccccc1` (configuration not stated) had an XC50 of 32.9 nM.
In the case of `CCN(CC)c1ccc(C(c2ccc(N(CC)CC)cc2)c2ccc([N+](=O)[O-])cc2)cc1` it was 946 nM.
In the case of `O=C(Nc1cccc(-c2nn3ccccc3c2-c2ccnc(Nc3ccc(-c4cc[nH]n4)cc3)n2)c1)c1c(F)cccc1F`, the XC50 stood at 189 nM.
Then `CCCCCn1c(Sc2ccc(C#N)c([N+](=O)[O-])c2)nnc1-c1cccc(Cl)c1`, with 768 nM; and `Cc1ccc(NC(=O)c2ccc(N3CCC(c4ccccc4C)CC3)nc2)cc1`, with 1400 nM; and `CC(=NNC(S)=NC(c1ccccc1)c1ccccc1)c1ccccn1`, with 896 nM.
In turn, `COCCSc1nc2scc(C)c2c(=O)n1Cc1cccc(OC)c1` had an XC50 of 912 nM.
In turn, `CCOc1ccc(Br)cc1/C=C/C(=O)Nc1ccc2c(c1)CN(C)CCC2` yielded an XC50 of 824 nM.
Turning to `Cc1nc2ccc3ccc(CNc4ccc(C(=O)CC(CCC(=O)O)C(=O)O)cc4)cc3c2c(=O)[nH]1` (configuration not stated), the XC50 was 35.7 nM.
On to `Cn1nc(C(F)(F)F)cc1-c1ccc(C(=O)NC2CCC(CN3CCC(c4c[nH]c5ccccc45)CC3)CC2)s1` (configuration not stated), for which the XC50 was found to be 565 nM.
Then `O=C(CNC1CCCCC1)Nc1cccc(C(=O)Nc2cccc(C(F)(F)F)c2)c1`, with 416 nM; and `Cc1oc(-c2ccccc2)nc1CCOc1ccc(C[C@H](Nc2ccccc2C(=O)c2ccccc2)C(=O)NCc2ccccn2)cc1`, with 884 nM; and `Cc1ccc(N)cc1-c1nc(NC2CC(C)(C)NC(C)(C)C2)nc2c1ccc(=O)n2-c1c(F)cccc1F`, with 842 nM.
Consider `Cc1ccc2cc(NC(=O)CCCCCCCON3C(N)=NC(N)=NC34CCCCC4)ccc2n1`, for which the XC50 came out at 92.5 nM.
In turn, `COc1ccc(CNC2CCN(c3ccc(NC(=O)c4cccc(Cl)c4)cc3)CC2)cc1OC` registered an XC50 of 1020 nM.
In the case of `O=C(Nc1cccc(-c2nn3ccccc3c2-c2ccnc(Nc3cccc(F)c3)n2)c1)c1c(F)ccc(F)c1Cl` it was 1140 nM; in that of `O=[N+]([O-])c1cccc(C(Nc2ccccn2)c2ccc3cccnc3c2O)c1` (configuration not stated), 1330 nM.
In the case of `O=C(Cc1cccnc1)Nc1cccc(-c2cccc(-c3nc4cc(C(F)(F)F)ccc4[nH]3)c2)c1` it was 677 nM; in that of `Nc1ccc2[nH]cc(C3CCN(CC4CCC(NC(=O)/C=C/c5ccc(Cl)c(Cl)c5)CC4)CC3)c2n1` (configuration not stated), 731 nM.
Then `CCc1ccc(C2CCN(CCCCNC(=O)c3ccc(-c4ccc(Cl)cc4)cc3)CC2)c(O)c1`, with 891 nM; and `COc1ccc(C=NNc2nc3ccccc3[nH]2)cc1O`, with 915 nM; and `CN1CCN(CCCN(Cc2ccc(-c3cccc(CNCc4ccc5c(c4)OCO5)c3)cc2)C(=O)NC2CCCCC2)CC1`, with 988 nM.
Take `C=CCOc1cccc2c1CCN(CCN1CCC(NC(=O)c3ccc(-c4ccc(Cl)cc4)cc3)CC1)C2`: the XC50 came to 673 nM.
In the case of `Cc1cc(Nc2ccncc2)n2nc(C)c(-c3ccc(Cl)cc3)c2n1` it was 157 nM.
Then `COc1ccc(-c2ccc(NC(=O)c3cccc(C#N)c3)cc2)cc1CN1CCCC(C(N)=O)C1` (configuration not stated), with 863 nM.
In the case of `Nc1nc(N)c2cc3ccc(OCc4ccccc4)cc3nc2n1`, the XC50 stood at 320 nM.
For the compound `Cc1sc2nc(CN3CCCC3)nc(-n3c(NCCO)nc4ccccc43)c2c1C`, the XC50 stood at 1240 nM.
For `Cc1nccc2c(NC(=O)N[C@@H]3CCN(c4ncc(C(F)(F)F)cc4Br)C3)cccc12`, the XC50 was 364 nM.
In the case of `CC(C)/C(=C(/F)CN1C(=O)C(NC(=O)c2cc3ccccc3[nH]2)C(=O)N(c2ccccc2)c2ccccc21)c1ccccc1` (configuration not stated) it was 697 nM.
Consider `Cc1c(Cc2ccccc2Cl)cnc2nc(N)nc(N)c12`, for which the XC50 turned out to be 7.42 nM.
Then `O=c1c2c([nH]c3cc(Cl)ccc13)CCCC2`, with 810 nM; and `O=C(Nc1ccc(-c2nc3ccccc3[nH]2)cc1)C1CCN(Cc2ccccc2)CC1`, with 1760 nM; and `COc1ccc2nccc(N3CCC(NCCNCc4ccc5c(n4)NC(=O)CS5)C3)c2n1` (configuration not stated), with 694 nM.
Regarding `Clc1ccc(Nc2nc(NCc3ccccc3)nc(N/N=C/c3ccccn3)n2)cc1`, the XC50 came to 776 nM.
In the case of `O=C(NCc1cccnc1)C(c1cc2ccccc2o1)N1CCN(C(c2ccccc2)c2ccccc2)CC1` (configuration not stated) it was 713 nM; in that of `O=C(CNC1CCCCC1)c1ccc(O)c(O)c1`, 660 nM; in that of `c1ccc2[nH]c(-c3ccc(-c4ccc(CN5CCCCC5)cc4)cc3)nc2c1`, 750 nM.
Regarding `COc1cc(NC(=O)c2ccc3c(=O)n(Cc4ccccc4)c(=S)[nH]c3c2)cc(OC)c1OC`, the XC50 turned out to be 743 nM.
Compound `Cc1ccc(S(=O)(=O)NC2CCN(c3ccnc4cc(Cl)ccc34)C2)cc1` (configuration not stated) gave an XC50 of 621 nM.
In the case of `O=C(CCc1cccnc1)Nc1cccc(-c2ccc(-c3nc4cc(C(F)(F)F)ccc4[nH]3)s2)c1` it was 953 nM; in that of `NC(=O)c1ccc(C(=O)Nc2cccc(-c3cccc(-c4nc5cc(C(F)(F)F)ccc5[nH]4)c3)c2)cc1`, 229 nM; in that of `C=CCc1cccc(OC)c1OCCCON1C(=N)N=C(N)NC1(C)C`, 3.2 nM.
